US4510136A (priority 1983, dated 1985)

What was measured:
[1] = test system: Puccinia recondita var. tritici; assay: Wheat leaf rust control on sprayed wheat seedlings (Example 79); assay type: in vivo; conditions: Puccinia recondita, 168 h; 100 ppm spray, day before inoculation
Procedure, shortened: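 Disease was scored as leaf rust pustules 7 days after a 24 h, 20° saturated-humidity incubation of seedlings inoculated with P. recondita var. tritici spores. Inoculation followed by one day a run-off spray of 100 ppm compound in water containing 6% acetone and 250 ppm TREM 014.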

Erysiphe cichoracearum = assay: Cucumber powdery mildew control on sprayed cucumber seedlings (Example 80); assay type: in vivo; conditions: Golovinomyces cichoracearum, 168 h, 100 ppm spray, day before inoculation
Venturia inaequalis = assay: Apple scab control on sprayed apple seedlings (Example 82); assay type: in vivo; conditions: Venturia inaequalis, 100 ppm spray, day before inoculation
Helminthosporium maydis = assay: Southern corn leaf blight control on sprayed corn seedlings (Example 83); assay type: in vivo; conditions: Bipolaris maydis, 192 h, 100 ppm spray, day before inoculation
Procedure, shortened: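 Corn seedlings were sprayed to run-off with 100 ppm suspensions (6% acetone, 250 ppm TREM 014) and spore-inoculated the following day. Disease and growth reduction were rated after 24 h saturated humidity at 20° plus 7 days in a growth room.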

Cercospora arachidicola = assay: Peanut early leafspot control on sprayed peanut seedlings (Example 84); assay type: in vivo; conditions: Mycosphaerella arachidis, 360 h, 100 ppm spray, day before inoculation; read-out: % Control Peanut Easly Leafspot
Rhizoctonia solani = assay: Rice sheath blight control on sprayed rice seedlings (Example 87); assay type: in vivo; conditions: Rhizoctonia solani, 168 h, 100 ppm spray, day before inoculation
Procedure, shortened: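 Disease ratings followed 7 days' growth-room incubation of seedlings given a bran/R. solani mycelium inoculum. Inoculation took place one day after spraying to run-off. The spray was a 100 ppm compound suspension in water containing 6% acetone and 250 ppm TREM 014.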

Pyricularia oryzae = assay: whole plant or invertebrate; assay type: in vivo; conditions: Pyricularia oryzae, 168 h, read-out: % Control of Rice Blast, 100 ppm spray, day before inoculation
Phytophthora infestans = assay: whole plant or invertebrate; assay type: in vivo; conditions: Phytophthora infestans, in Solanum lycopersicum, 168 h, read-out: % Control of Tomato Late Blight, 100 ppm spray, day before inoculation
cucumber seedlings = assay: Phytotoxicity on cucumber seedlings (Example 80); assay type: in vivo; parameters: key: G = growth reduction; H = hormonal effects; conditions: 100 ppm spray
Experimental: The compounds of the previous example were again dissolved in acetone in an amount equal to 6% of the final volume and then suspended at a concentration of 100 ppm in purified water containing 250 ppm of the surfactant TREM 014 (polyhydric alcohol esters). These suspensions were sprayed to the point of run-off, on cucumber seedlings. The following day, the plants were inoculated with a spore suspension of the fungus Erysiphe cichoracearum, causal agent of cucumber powdery mildew, and incubated in a growth room for 7 days. Disease ratings were then made. Treated plants from successful treatments had little or no powdery mildew in contrast to untreated plants which were covered with powdery mildew. Phytotoxicity in the form of growth reduction or hormonal effects was observed on some of the plants in association with disease control.

Pythium aphanadermatum = assay: Pythium control on cotton, seed coating (Example 91); assay type: in vivo; conditions: 168 h, 2 gm/kg seed
From the text: Several compounds of the previous examples were incorporated into a proprietary formulation and used to coat cotton seeds at a rate of 2 gm/kg seed. After being thoroughly coated, the seeds were allowed to air dry at room temperature. The cotton seeds were then planted into soil amended with the fungus Pythium aphanadermatum, sand, and corn meal at a rate sufficient to kill most untreated seeds. The seeds were held at room temperature for 1 week, after which time disease ratings were made.

Monilinia fructicola = assay: Stone fruit brown rot control on dipped canned peach halves (Example 86); conditions: 120 h, 100 ppm dip, percent growth inhibition of colonies after five days
From the text: Several compounds of the previous examples were again dissolved in acetone in an amount equal to 5% of the final volume and then suspended at a concentration of 100 ppm in purified water containing 700 ppm of the surfactant TREM 014 (polyhydric alcohol esters). Canned peach halves were dipped in this suspension for three minutes and then placed to air dry in sterile containers. Upon drying, the peach halves were inoculated with two pieces of Monilinia fructicola mycelium, causal agent of stone fruit brown rot, and incubated in the sterile containers for five days. At that time the radii of the colonies' growth were measured on each peach. […] Percent disease control (percent growth inhibition of colonies on treated peaches as compared to that of colonies on untreated peaches) is expressed in the table below.

Row | Compound | pest or weed control at 100 ppm [1] [%] | pest or weed control at 100 ppm (Erysiphe cichoracearum) [%] | pest or weed control at 100 ppm (Venturia inaequalis) [%] | pest or weed control at 100 ppm (Helminthosporium maydis) [%] | pest or weed control at 100 ppm (Cercospora arachidicola) [%] | pest or weed control at 100 ppm (Rhizoctonia solani) [%] | pest or weed control at 100 ppm (Pyricularia oryzae) [%] | pest or weed control at 100 ppm (Phytophthora infestans) [%] | Phytotoxicity on cucumber (cucumber seedlings) | pest or weed control at 2 g/kg seed (Pythium aphanadermatum) [%] | inhibition of growth at 100 µg/mL (Monilinia fructicola) [%]
1 | C[Si](C)(Cn1cncn1)c1ccc(C(F)(F)F)cc1 [Dimethyl(1H-1,2,4-triazol-1-ylmethyl)(4-trifluoromethylphenyl)silane] | 0 | 100 | 0 | 50 | 0 | 0 | 0 | 0 | G |  | 
2 | C[Si](Cn1cncn1)(c1ccc(-c2ccccc2)cc1)c1ccc(-c2ccccc2)cc1 [bis(1,1'-Biphenyl-4-yl)(methyl)(1H-1,2,4-triazol-1-ylmethyl)silane] | 80 | 100 | 0 | 0 | 80 | 90 | 100 | 0 |  | 0 | 
3 | C[Si](C)(Cn1cncn1)c1ccccc1 [Dimethyl(phenyl)(1H-1,2,4-triazol-1-ylmethyl)silane] | 90 | 100 | 0 | 0 | 0 |  | 0 | 0 |  | 0 | 89
4 | CCCC[Si](C)(Cn1cncn1)c1ccc(-c2ccccc2)cc1 (centres unmarked) [(1,1'-Biphenyl-4-yl)butyl(methyl)(1H-1,2,4-triazol-1-ylmethyl)silane] | 90 | 100 | 80 | 50 | 100 | 80 | 100 | 0 |  |  | 0
5 | C[Si](Cn1cncn1)(c1ccc(Cl)cc1Cl)c1ccc(Cl)cc1Cl [bis(2,4-Dichlorophenyl)(methyl)(1H-1,2,4-triazol-1-ylmethyl)silane] | 100 | 100 | 100 | 80 | 100 | 0 | 0 | 0 | G |  | 
6 | O[Si](Cn1cncn1)(c1ccc(F)cc1)c1ccc(F)cc1 [bis(4-Fluorophenyl)hydroxy(1H-1,2,4-triazol-1-ylmethyl)silane] | 90 | 100 | 100 | 100 | 100 | 0 | 0 | 0 | H |  | 
7 | CCCC[Si](C)(CCCC)Cn1cncn1 [Dibutyl(methyl)(1H-1,2,4-triazol-1-ylmethyl)silane] | 0 | 0 | 0 | 0 | 0 | 0 | 80 | 0 |  |  | 81
8 | C[Si](C)(Cn1cncn1)c1ccc(OC(F)(F)F)cc1 [Dimethyl(4-trifluoromethoxyphenyl)(1H-1,2,4-triazol-1-ylmethyl)silane] | 100 | 100 | 90 | 80 | 50 | 0 | 0 | 0 | G |  | 
9 | O[Si](Cn1cncn1)(c1ccc(Cl)cc1)c1ccc(Cl)cc1 [bis(4-Chlorophenyl)hydroxy(1H-1,2,4-triazol-1-ylmethyl)silane] | 90 | 100 | 100 | 90 | 100 | 0 | 0 | 0 | H |  | 
10 | COc1ccccc1[Si](C)(C)Cn1cncn1 [(2-Methoxyphenyl)dimethyl(1H-1,2,4-triazol-1-ylmethyl)silane] | 0 | 100 | 80 | 70 | 0 | 0 | 0 | 0 | G |  | 
11 | C[Si](C)(Cn1cncn1)c1ccccc1Cl [(2-Chlorophenyl)dimethyl(1H-1,2,4-triazol-1-ylmethyl)silane] | 0 |  |  |  |  | 0 | 100 | 0 | G |  | 
12 | COc1cccc(OC)c1[Si](C)(C)Cn1cncn1 [(2,6-Dimethoxyphenyl)dimethyl(1H-1,2,4-triazol-1-ylmethyl)silane] | 0 | 100 | 0 | 0 | 0 | 0 | 0 | 0 | G |  | 
13 | C[Si](Cn1cncn1)(c1ccc(Br)cc1)c1ccc(Br)cc1 [[bis(4-Bromophenyl)]methyl(1H-1,2,4-triazol-1-ylmethyl)silane] | 0 | 80 | 80 | 0 | 100 | 0 | 90 | 0 | G |  | 
14 | COc1cccc([Si](C)(C)Cn2cncn2)c1OC [(2,3-Dimethoxyphenyl)dimethyl(1H-1,2,4-triazol-1-ylmethyl)silane] | 0 | 100 | 0 | 0 | 0 | 0 | 0 | 0 | G |  | 
